# Laboratory results taken from patent US20140303092A1 (CHIMERIX, INC., priority 2011, published 2014).
# Assay: Study HDP-CDV-201: safety and tolerability (adverse events, laboratory abnormalities, discontinuations)
# Type: in vivo, human (adult allogeneic HSCT recipients)
# Method: Clinical Studies of HDP-CDV were performed and described in detail in the following Examples. For example, HDP-CDV-201 is a placebo-controlled, dose-escalating trial in HSCT CMV (R+) recipients, evaluating the ability of HDP-CDV to prevent or control CMV infection was carried out. Five cohorts were established in which participants or subjects received either placebo or the HDP-CDV orally, in doses ranging from 40 mg weekly (QW) to 200 mg twice weekly (BIW). Subjects who were post-HSCT were enrolled at the time of engraftment and randomized to HDP-CDV or placebo (3 to 1 ratio) and received blinded therapy until approximately 100 day post-transplantation. HDP-CDV doses were 40 mg QW, 100 mg QW, 200 mg QW, 200 mg BIW and 100 mg BIW. Escalation to the next dose was decided by the data monitoring committee after review of the safety data from the previous Cohort. Subjects who developed CMV disease or CMV infection requiring pre-emptive therapy with local standard of care were discontinued from blinded therapy and followed for 4 weeks. Subjects who completed treatment with blinded therapy were followed for 8 weeks post-therapy.
# Data from Study HDP-CDV-201 also provided characterization of the safety and tolerability profile of HDP-CDV when administered for the prevention or control of CMV infection in high risk (R^+) post-HSCT adult subjects.
# The Safety population (SAFETY) included all randomized subjects who took at least one dose of study treatment. This population was used to summarize safety outcomes based on the treatment actually received, in cases where a subject was treated contrary to the randomization schedule.
# The safety and tolerability profile of HDP-CDV, including subject demographics and Baseline characteristics; the AE profile; and laboratory abnormalities of interest were analyzed in the cohorts followed in this investigation.
# Subjects completing the treatment period received a full course of study medication; those completing the entire study attended visits through 8 weeks of follow up. Subjects who discontinued treatment may have done so for protocol specified reasons (e.g. development of clinically significant CMV infection requiring preemptive treatment with excluded anti-CMV medications) or for other reasons (e.g., withdrawal, adverse events, loss to follow-up). The disposition of subjects in Study HDP-CDV-201 during the double-blind, placebo-controlled treatment period (through Week 11) is listed by dosing Cohort in TABLE 23.
# Adverse events were examined by severity to ensure that all safety signals were identified in this study population. Because of the frequency of events in HSCT recipients, particular attention was given to evaluation of Grade 3 […], 4 (severe), and 5 (fatal) adverse events.
# Only those preferred terms for which at least one Grade 3 or higher event was experienced in any treatment group are listed. Cytomegalovirus-related AEs are excluded from this analysis.
# HDP-CDV is a lipid conjugate of CDV. Because CDV is known to have adverse effects on renal function and bone marrow, decreased GFR and persistent neutropenia were identified as AEs of special interest. Key renal and hematological (TABLE 30) laboratory parameters were measured and listed below by Study HDP-CDV-201 treatment groups. TABLE 30 includes abnormal levels of serum creatinine, neutrophils, platelets, WBCs, and hemoglobin and includes data at Screening and during the treatment period.
# A common metric for unit based dosing of medications is by weight (mg/kg). When the distribution of weights was examined for all subjects participating in the study, the median was 78 kg and the lower 25th percentile weight was approximately 65 kg, which translates to a cut-off of ˜3 mg/kg for a 200 mg total weekly dose. Based upon this approach, a cut-off of 3 mg/kg was used to assess the frequency of diarrhea and associated GI AEs reported for the subjects in Cohorts 3 or 4a (TABLE 40).
# [1] = Cohort 1, 40 mg QW, through Week 11
smiles,measurement,setting,value
CCCCCCCCCCCCCCCCOCCCOP(=O)(O)COC(CO)Cn1ccc(N)nc1=O (centres unmarked) [HDP-CDV],TEAE Anxiety,"Cohort 1, 40 mg QW, N = 25",0 n (%)
same,TEAE Arthralgias,"Cohort 1, 40 mg QW, N = 25",0 n (%)
same,TEAE Back Pain,"Cohort 1, 40 mg QW, N = 25",0 n (%)
same,TEAE Blood lactate dehydrogenase increased,"Cohort 1, 40 mg QW, N = 25",0 n (%)
same,TEAE Creatinine increased,"Cohort 1, 40 mg QW, N = 25",0 n (%)
same,TEAE Cytomegalovirus viremia,"Cohort 1, 40 mg QW, N = 25",10 (40.0%) n (%)
same,TEAE Decreased appetite,"Cohort 1, 40 mg QW, N = 25",4 (16.0%) n (%)
same,TEAE Diarrhoea,"Cohort 1, 40 mg QW, N = 25",3 (12.0%) n (%)
same,TEAE Dysgeusia,"Cohort 1, 40 mg QW, N = 25",1 (4.0%) n (%)
same,TEAE Fatigue,"Cohort 1, 40 mg QW, N = 25",1 (4.0%) n (%)
same,TEAE GI Reflux Disease,"Cohort 1, 40 mg QW, N = 25",2 (8.0%) n (%)
same,TEAE Gamma-glutamyltransferase increased,"Cohort 1, 40 mg QW, N = 25",0 n (%)
same,TEAE Generalized oedema,"Cohort 1, 40 mg QW, N = 25",1 (4.0%) n (%)
same,TEAE Hyperbilirubinaemia,"Cohort 1, 40 mg QW, N = 25",1 (4.0%) n (%)
same,TEAE Hyperglycaemia,"Cohort 1, 40 mg QW, N = 25",1 (4.0%) n (%)
same,TEAE Hyperkalemia,"Cohort 1, 40 mg QW, N = 25",1 (4.0%) n (%)
same,TEAE Hypocalcaemia,"Cohort 1, 40 mg QW, N = 25",1 (4.0%) n (%)
same,TEAE Hypokalaemia,"Cohort 1, 40 mg QW, N = 25",4 (16.0%) n (%)
same,TEAE Hyponatraemia,"Cohort 1, 40 mg QW, N = 25",3 (12.0%) n (%)
same,TEAE Increased leukocytosis,"Cohort 1, 40 mg QW, N = 25",1 (4.0%) n (%)
same,TEAE Insomnia,"Cohort 1, 40 mg QW, N = 25",2 (8.0%) n (%)
same,TEAE Liver function test abnormal,"Cohort 1, 40 mg QW, N = 25",0 n (%)
same,TEAE Malnutrition,"Cohort 1, 40 mg QW, N = 25",0 n (%)
same,TEAE Nausea,"Cohort 1, 40 mg QW, N = 25",6 (24.0%) n (%)
same,TEAE Neutropenia,"Cohort 1, 40 mg QW, N = 25",2 (8.0%) n (%)
same,TEAE Oedema peripheral,"Cohort 1, 40 mg QW, N = 25",3 (12.0%) n (%)
same,TEAE Oral Candidiasis,"Cohort 1, 40 mg QW, N = 25",0 n (%)
same,TEAE Pneumonia,"Cohort 1, 40 mg QW, N = 25",1 (4.0%) n (%)
same,TEAE Pyrexia,"Cohort 1, 40 mg QW, N = 25",1 (4.0%) n (%)
same,TEAE Recurrent flatulence,"Cohort 1, 40 mg QW, N = 25",0 n (%)
same,TEAE Renal Failure,"Cohort 1, 40 mg QW, N = 25",1 (4.0%) n (%)
same,TEAE Staphylococcal Bacteremia,"Cohort 1, 40 mg QW, N = 25",0 n (%)
same,TEAE Thrombocytopenia,"Cohort 1, 40 mg QW, N = 25",3 (12.0%) n (%)
same,TEAE Tremor,"Cohort 1, 40 mg QW, N = 25",3 (12.0%) n (%)
same,TEAE Vomiting,"Cohort 1, 40 mg QW, N = 25",2 (8.0%) n (%)
same,Vomiting leading to study drug withdrawal,"Cohort 1, 40 mg QW, N = 25",0%
same,"All AEs, Grade 5 (deaths)","Cohort 1, 40 mg QW, N = 25, entire study duration",2 (8.0%)
same,Subjects completed treatment,[1],9 (36.0%) n (%)
same,Subjects who permanently discontinued treatment,[1],16 (64.0%) n (%)
same,subjects discontinued due to neutropenia,Cohort 2,1 subject(s)
same,"ALT (Screening) >3 × ULN-5 × ULN, subjects","Cohort 2, 100 mg QW",0
same,"ALT (Screening) >5 × ULN-10 × ULN, subjects","Cohort 2, 100 mg QW",0
same,"ALT (Screening) >10 × ULN-20 × ULN, subjects","Cohort 2, 100 mg QW",0
same,"ALT (Screening) >20 × ULN, subjects","Cohort 2, 100 mg QW",0
same,"ALT (any time during therapy) >3 × ULN-5 × ULN, subjects","Cohort 2, 100 mg QW",1 (3.7%)
same,"ALT (any time during therapy) >5 × ULN-10 × ULN, subjects","Cohort 2, 100 mg QW",0
same,"ALT (any time during therapy) >10 × ULN-20 × ULN, subjects","Cohort 2, 100 mg QW",1 (3.7%)
same,"ALT (any time during therapy) >20 × ULN, subjects","Cohort 2, 100 mg QW",0
same,"AST (Screening) >3 × ULN-5 × ULN, subjects","Cohort 2, 100 mg QW",0
same,"AST (Screening) >5 × ULN-10 × ULN, subjects","Cohort 2, 100 mg QW",0
same,"AST (Screening) >10 × ULN-20 × ULN, subjects","Cohort 2, 100 mg QW",0
same,"AST (Screening) >20 × ULN, subjects","Cohort 2, 100 mg QW",0
same,"AST (any time during therapy) >3 × ULN-5 × ULN, subjects","Cohort 2, 100 mg QW",1 (3.7%)
same,"AST (any time during therapy) >5 × ULN-10 × ULN, subjects","Cohort 2, 100 mg QW",0
same,"AST (any time during therapy) >10 × ULN-20 × ULN, subjects","Cohort 2, 100 mg QW",0
same,"AST (any time during therapy) >20 × ULN, subjects","Cohort 2, 100 mg QW",0
